Entries after “also recorded” stand apart in the source; their conditions may differ. Structures can show the parent of a compound that is named as a salt. Where two headings read alike, the source gives them in different places. One block for each compound: values may come before it.
Target: T1, His6-AspH315–758 (human aspartate/asparagine-β-hydroxylase, AspH) (Homo sapiens, UniProt Q12797)
T1 construct: N-Terminally His6-tagged human AspH315–758 (His6-AspH315–758) was produced in E. coli BL21 (DE3) cells; made in house; host or cells: E. coli BL21 (DE3), pET-28a(+) vector
T1 sequence (Q12797 315-758): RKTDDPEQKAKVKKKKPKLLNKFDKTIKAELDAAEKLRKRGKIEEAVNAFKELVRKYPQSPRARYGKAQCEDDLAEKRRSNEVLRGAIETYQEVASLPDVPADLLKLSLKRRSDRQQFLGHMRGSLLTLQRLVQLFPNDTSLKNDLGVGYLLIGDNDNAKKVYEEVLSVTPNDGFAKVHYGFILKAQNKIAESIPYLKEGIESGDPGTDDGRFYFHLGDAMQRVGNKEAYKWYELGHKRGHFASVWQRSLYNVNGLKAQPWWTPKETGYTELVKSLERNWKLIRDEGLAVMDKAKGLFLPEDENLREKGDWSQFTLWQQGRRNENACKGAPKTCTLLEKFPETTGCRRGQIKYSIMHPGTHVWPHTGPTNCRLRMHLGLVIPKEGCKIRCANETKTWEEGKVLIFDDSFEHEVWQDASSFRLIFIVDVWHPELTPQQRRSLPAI
Experiment: SPE-MS AspH inhibition assay (LOPAC screen at fixed 20 μM and IC50 dose-response), hydroxylation of cyclic peptide hFX-CP101–119
Type: biochemical

[1] = LOPAC Plate 4, compound at 20 uM
[2] = LOPAC Plate 4, compound at 20 uM, substrate conversion
[3] = LOPAC compound at 20uM, plate 3, conversion of substrate peptide
[4] = LOPAC compound at 20uM, plate 2, conversion of substrate peptide
[5] = LOPAC compound at 20uM, plate 2, normalised to DMSO and 2,4-PDCA controls
[6] = AspH activity, fixed compound concentration 20 μM, initial LOPAC screen, 0.5%v/v DMSO, read-out: Inhibition at 20 µM [%]
[7] = LOPAC compound at fixed 20 uM, plate 1, normalised to DMSO and 2,4-PDCA controls
[8] = LOPAC compound at fixed 20 uM, substrate conversion, plate 1
[9] = LOPAC compound at 20uM, plate 2, normalised to DMSO and 2,4-PDCA controls, read-out: Plate 2 (% inhibition)

SMILES: CN(C)C(=O)[C@H](O)[C@H](Cc1ccccc1)NC(=O)c1cc2cc(Cl)ccc2[nH]1 [CP-91149]
- Plate 2 (% conversion): 37.12%
- Plate 5 (% conversion): 35.66%
- Plate 5 (% inhibition): 1.91%
- Plate 2 (% inhibition) (20 µM): -3.47%

SMILES: Cl.Cl.O=c1ccc2[nH]cc(C3=CCNCC3)c2[nH]1 [CP-93129 dihydrochloride hydrate]
- % conversion: 37.25%
- % inhibition [1]: -2.28%

SMILES: O=c1ccc2[nH]cc(C3=CCNCC3)c2[nH]1 [CP-93129]
- Plate 5 (% conversion): 38.32%
- Plate 5 (% inhibition): -5.90%

- % inhibition [1]: -15.48%
- % conversion [2]: 41.75%
SMILES: COc1ccccc1CN[C@@H]1CCCN[C@@H]1c1ccccc1.Cl.Cl.O [CP-100263 dihydrochloride hydrate]

SMILES: COc1ccccc1CN[C@H]1CCCN[C@H]1c1ccccc1 [CP-100263]
- Plate 5 (% conversion): 33.08%
- Plate 5 (% inhibition): 9.51%

SMILES: CC(C)(C)OC(=O)NC1[C@H]2CNC[C@@H]12 (stereo partly shown) [CP-101537]
- Plate 3 (% conversion): 33.25%
- Plate 5 (% conversion): 36.34%
- Plate 5 (% inhibition): -0.06%

SMILES: CN1CCC[C@@H]1Cc1c[nH]c2ccc(Nc3ncccc3[N+](=O)[O-])cc12 [CP-135807]
- % conversion: 37.42%
- Plate 5 (% conversion): 32.28%
- Plate 5 (% inhibition): 11.85%

- Plate 3 (% conversion) [3]: 39.02%
SMILES: CCCCN(CC)c1nc(C)nc2c1c(C)cn2-c1c(C)cc(C)cc1C.Cl [CP-154526 hydrochloride]

- Plate 5 (% inhibition) (plate 5 (Pfitzer), test compounds at fixed 20 μM): -9.05%
- Plate 5 (% conversion) (plate 5 (Pfitzer), test compounds at fixed 20 μM, mean conversion DMSO 32.88): 39.39%
SMILES: CCCCN(CC)c1nc(C)nc2c1c(C)cn2-c1c(C)cc(C)cc1C [CP-154526]

SMILES: Fc1ccc2[nH]c(CN3CCN(c4ccccn4)CC3)cc2c1 [CP-226269]
- % conversion: 39.74%
- Plate 5 (% conversion): 37.75%
- Plate 5 (% inhibition): -4.22%

SMILES: O.O.O=C(Nc1ccc2c(c1)CCN(Cc1ncn[nH]1)C2)c1ccccc1-c1ccc(C(F)(F)F)cc1 [CP-346086 dihydrate]
- % inhibition [1]: -27.35%
- % conversion [2]: 45.80%

SMILES: O=C(Nc1ccc2c(c1)CCN(Cc1ncn[nH]1)C2)c1ccccc1-c1ccc(C(F)(F)F)cc1 [CP-346086]
- Plate 5 (% conversion): 46.02%
- Plate 5 (% inhibition): -28.53%

SMILES: COCCOc1cc2nc[nH]c(=O)c2cc1OCCOC [CP-380736]
- Plate 1 (% conversion): 40.54%
- Plate 1 (% inhibition): -13.90%
- Plate 5 (% conversion): 31.91%
- Plate 5 (% inhibition): 12.94%

SMILES: CC(C)(NS(=O)(=O)c1ccc(Oc2ccc(F)cc2)cc1)C(=O)NO [CP-471474]
- Plate 5 (% conversion): 38.13%
- Plate 5 (% inhibition): -5.33%

SMILES: CC(C)c1ccc(CC(=O)N2CCC[C@@H](c3cccc(OC(C)(C)C(=O)O)c3)C2)cc1 [CP-775146]
- Plate 5 (% conversion): 34.51%
- Plate 5 (% inhibition): 5.31%

SMILES: CN(CCC(Oc1ccc(C(=O)c2nccs2)cc1)c1ccc(Cl)cc1)CC(=O)O (stereo not shown) [CP-802079]
- Plate 5 (% conversion): 32.57%
- Plate 5 (% inhibition): 11.01%

- IC50 [μM] (50 nM His6-AspH315–758, 1.0 μM hFX-CP101–119, 3 μM 2OG, 2 μM Fe(II), 50 mM HEPES pH 7.5, 20 °C, mean ± SD, n = 2 (2,4-PDCA n = 10)): inactive
SMILES: CC(C)c1c(-c2ccccc2)[nH]c2c(C#N)cnn2c1=O [CPI-455, reference compound]

- Plate 2 (% conversion) [4]: 35.99%
- Plate 2 (% inhibition) [5]: -0.10%
SMILES: O=C(c1ccc(Cl)cc1)N1CCN(c2ccc([N+](=O)[O-])c3ncccc23)CC1 [CPNQ]

- Plate 3 (% conversion) [3]: 40.87%
SMILES: CC1(C)CCC(NC(=O)[C@@H](N)CCC(=O)O)CC1 [CR 2249]

- Plate 2 (% conversion) [4]: 39.70%
- Plate 2 (% inhibition) [5]: -11.19%
SMILES: O=C(c1ccc2c(c1)OCCO2)N1CCCCC1 [CX 546]

SMILES: [Ca+2].[Cl-].[Cl-] [Ca(II), CaCl2, reference compound]
- IC50 metal ion, AspH [μM] (50 nM AspH, 2.0 μM Fe(II), Zn(OAc)2, NiSO4, CoCl2, MnCl2, CaCl2 as metal sources, n = 2, mean ± SD): do not show any effect; also recorded: does not perturb AspH activity; also recorded: inactive

- inhibition at 20 µM [6]: 98.5%
- Plate 1 (% inhibition) [7]: 98.53%
- Plate 1 (% conversion) [8]: 2.78%
SMILES: O=C(/C=C/c1ccc(O)c(O)c1)OCCc1ccccc1 [Caffeic acid phenethyl ester, reference compound]

SMILES: Cn1c(=O)c2c(ncn2C)n(C)c1=O [Caffeine]
- Plate 1 (% inhibition) [7]: -5.72%
- Plate 1 (% conversion) [8]: 37.79%

SMILES: CNc1ccc2oc(C[C@H]3O[C@@]4(CC[C@H]3C)O[C@H]([C@H](C)C(=O)c3ccc[nH]3)[C@H](C)C[C@H]4C)nc2c1C(=O)O [Calcimycin, calcimycin, reference compound]
- Plate 1 (% conversion): 2.02%
- IC50 (IC50 [μM]): 4.19 ± 0.1 µM
- inhibition at 20 µM (read-out: Inhibition at 20 µM [%]): 101%

SMILES: Clc1ccc(C(c2ccc(Cl)cc2)n2cc[n+](CC(OCc3ccc(Cl)cc3Cl)c3ccc(Cl)cc3Cl)c2)cc1 (stereo not shown) [Calmidazolium chloride]
- Plate 1 (% conversion): 58.50%
- Plate 1 (% inhibition) [7]: -67.38%

- Plate 2 (% conversion) [4]: 25.50%
- inhibition at 20 µM [9]: 31.2%
SMILES: O=c1[nH]c(=S)[nH]c(-c2ccccc2)c1Cc1c(O)ccc2ccccc12 [Cambinol]

SMILES: CC1(C(=O)O)C2CCC(O2)C1(C)C(=O)O (stereo not shown) [Cantharidic Acid]
- Plate 1 (% conversion): 25.92%
- Plate 1 (% inhibition): 29.65%

SMILES: C[C@@]12C(=O)OC(=O)[C@]1(C)[C@H]1CC[C@@H]2O1 [Cantharidin]
- Plate 1 (% conversion): 17.40%
- Plate 1 (% inhibition): 55.02%

- IC50 (50 nM His6-AspH315–758, 1.0 μM hFX-CP101–119, 3 μM 2OG, 2 μM Fe(II), 50 mM HEPES pH 7.5, 20 °C, mean ± SD, n = 2 (2,4-PDCA n = 10), read-out: IC50): 3.41 ± 0.28 µM
- inhibition at 20 µM [6]: 99.7%
- Plate 2 (% conversion) [4]: 2.59%
- inhibition at 20 µM [9]: 99.7%
SMILES: Oc1cc2c(cc1O)CN(C(=S)NCCc1ccc(Cl)cc1)CCC2 [Capsazepine, capsazepine, reference compound]

SMILES: C[C@H](CS)C(=O)N1CCC[C@H]1C(=O)O [Captopril]
- Plate 1 (% conversion): 35.34%
- Plate 1 (% inhibition): 1.58%

- Plate 1 (% inhibition) [7]: -3.17%
- Plate 1 (% conversion) [8]: 36.94%
SMILES: C[N+](C)(C)CCOC(N)=O [Carbachol]

- Plate 1 (% inhibition) [7]: 0.72%
- Plate 1 (% conversion) [8]: 35.63%
SMILES: NC(=O)N1c2ccccc2C=Cc2ccccc21 [Carbamazepine]

- Plate 1 (% inhibition) [7]: 80.85%
- Plate 1 (% conversion) [8]: 8.72%
SMILES: CCN(CC)CCOCCOC(=O)C1(c2ccccc2)CCCC1 [Carbetapentane citrate]

SMILES: CCCCCCNC(=O)n1cc(F)c(=O)[nH]c1=O [Carmofur]
- % conversion: 37.69%
- inhibition at 20 µM (LOPAC Plate 4, compound at 20 uM, read-out: % inhibition): -3.58%

SMILES: O=NN(CCCl)C(=O)NCCCl [Carmustine]
- Plate 1 (% conversion): 39.33%
- Plate 1 (% inhibition) [7]: -10.30%

- % conversion [2]: 34.53%
SMILES: CCN(CC)CCn1c(=O)c(Cc2ccc(OC)cc2)nc2ccccc21.Cl [Caroverine hydrochloride]

- Plate 1 (% inhibition) [7]: 23.98%
- Plate 1 (% conversion) [8]: 27.82%
SMILES: N[C@@H](C(=O)N[C@@H]1C(=O)N2C(C(=O)O)=C(Cl)CS[C@H]12)c1ccccc1 [Cefaclor]

- Plate 1 (% inhibition) [7]: 9.95%
- Plate 1 (% conversion) [8]: 32.53%
SMILES: Cc1nnc(SCC2=C(C(=O)O)N3C(=O)[C@@H](NC(=O)Cn4cnnn4)[C@H]3SC2)s1 [Cefazolin sodium]

- Plate 1 (% inhibition) [7]: -3.81%
- Plate 1 (% conversion) [8]: 37.15%
SMILES: CO[C@@]1(NC(=O)CSCC#N)C(=O)N2C(C(=O)O)=C(CSc3nnnn3C)CS[C@@H]21 [Cefmetazole sodium]

- Plate 1 (% inhibition) [7]: 3.71%
- Plate 1 (% conversion) [8]: 34.63%
SMILES: CO/N=C(\C(=O)N[C@@H]1C(=O)N2C(C(=O)O)=C(COC(C)=O)CS[C@H]12)c1csc(N)n1 [Cefotaxime sodium]

- Plate 1 (% inhibition) [7]: 64.70%
- Plate 1 (% conversion) [8]: 14.14%
SMILES: NC(=O)c1cc[n+](CC2=C(C(=O)[O-])N3C(=O)[C@@H](NC(=O)C(c4ccccc4)S(=O)(=O)[O-])[C@H]3SC2)cc1.O.[Na+] (stereo partly shown) [Cefsulodin sodium salt hydrate]
